Converted amounts (≈) assume the structure as drawn.
Key:
Type in all cases: cell-based
[1] = tested on: STREPTOCOCCUS PYOGENES EES61; assay: In vitro antibacterial activity, MIC, BHI agar dilution; settings: S. pyogenes EES61, unit assumed
[2] = tested on: STREPTOCOCCUS PYOGENES PIU 2548; assay: as above; settings: S. pyogenes PIU 2548, unit assumed
[3] = tested on: ESCHERICHIA COLI H560; assay: as above; settings: E. coli H560, unit assumed
[4] = tested on: PSEUDOMONAS AERUGINOSA BMH10; assay: as above; settings: P. aeruginosa BMH10, unit assumed
[5] = tested on: STAPHYLOCOCCUS AUREUS ATCC 6538P; assay: as above; settings: S. aureus ATCC 6538P, 35-37° C., 20 to 24 hours, unit assumed
[6] = tested on: STAPHYLOCOCCUS AUREUS CMX 553; assay: as above; settings: S. aureus CMX 553, unit assumed
[7] = tested on: PSEUDOMONAS AERUGINOSA DPHD-5263; assay: as above; settings: P. aeruginosa DPHD-5263, unit assumed
[8] = tested on: MYCOBACTERIUM SMEGMATIS ATCC 114; assay: as above; settings: M. smegmatis ATCC 114, unit assumed
[9] = tested on: ESCHERICHIA COLI JUHL; settings: E. coli JUHL; BHI agar; unit assumed
[10] = tested on: PSEUDOMONAS AERUGINOSA K799/61; assay: In vitro antibacterial activity, MIC, BHI agar dilution; settings: P. aeruginosa K799/61, unit assumed
[11] = tested on: CANDIDA ALBICANS CCH 442; assay: as above; settings: C. albicans CCH 442, unit assumed
[12] = tested on: PSEUDOMONAS AERUGINOSA K799/WT; assay: as above; settings: P. aeruginosa K799/WT, unit assumed
[13] = tested on: STAPHYLOCOCCUS AUREUS A5177; assay: as above
[14] = tested on: PSEUDOMONAS AERUGINOSA DPHD-2862; assay: as above; settings: P. aeruginosa DPHD-2862, unit assumed
[15] = tested on: STAPHYLOCOCCUS AUREUS A-5278; assay: as above; settings: S. aureus A-5278, unit assumed
[16] = tested on: STAPHYLOCOCCUS EPIDERMIDIS 3519; settings: S. epidermidis 3519; BHI agar; unit assumed
[17] = tested on: EN[…] ATCC 8043; assay: In vitro antibacterial activity, MIC, BHI agar dilution; settings: E. faecium ATCC 8043, unit assumed
Outline: (§1)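 MIC was read visually as the lowest drug concentration showing no growth, a slight haze or sparsely isolated colonies relative to a compound-free BHI plate. Plates held serial aqueous dilutions in BHI agar, were spot-inoculated with 1:100 (or 1:10) culture dilutions and incubated 20 to 24 hours at 35-37° C.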

[18] = tested on: M[…] ATCC 4698; assay: as above; settings: M. luteus ATCC 4698, unit assumed
Outline: as §1

[19] = tested on: STR[…] 508; assay: as above; settings: S. agalactiae CMX 508, unit assumed
Outline: as §1

[20] = tested on: M[…] ATCC 9341; assay: as above; settings: M. luteus ATCC 9341, unit assumed
Outline: as §1

[21] = tested on: KLEBSIELLA PNEUMONIAE ATCC 8045; assay: as above; settings: K. pneumoniae ATCC 8045, unit assumed
[22] = tested on: STAPHYLOCOCCUS AUREUS 1775; assay: as above; settings: S. aureus 1775, unit assumed
[23] = tested on: ESCHERICHIA COLI KNK 437; settings: E. coli KNK 437; BHI agar; unit assumed
[24] = tested on: STAPHYLOCOCCUS AUREUS NCTC10649M; assay: In vitro antibacterial activity, MIC, BHI agar dilution; settings: S. aureus NCTC10649M, unit assumed
[25] = tested on: ESCHERICHIA COLI DC-2; assay: as above; settings: E. coli DC-2, unit assumed
[26] = tested on: PSEUDOMONAS AERUGINOSA 5007; assay: as above; settings: P. aeruginosa 5007, unit assumed
[27] = tested on: STAPHYLOCOCCUS AUREUS CMX 642A; assay: as above; settings: S. aureus CMX 642A, unit assumed
[28] = tested on: ENTEROBACTER AEROGENES ATCC 13048; assay: as above; settings: E. aerogenes ATCC 13048, unit assumed
[29] = tested on: ESCHERICHIA COLI SS; assay: as above; settings: E. coli SS, unit assumed
[30] = tested on: PROVIDENCIA STUARTII CMX 640; settings: P. stuartii CMX 640; BHI agar; unit assumed
[31] = tested on: STREPTOCOCCUS PYOGENES 930; assay: In vitro antibacterial activity, MIC, BHI agar dilution; settings: S. pyogenes 930, unit assumed
[32] = tested on: STREPTOCOCCUS BOVIS A-5169; assay: as above; settings: S. bovis A-5169, unit assumed
[33] = tested on: PSEUDOMONAS CEPACIA 296I; assay: as above; settings: P. cepacia 296I, unit assumed

| SMILES | MIC [1] [µg/mL] | MIC [2] [µg/mL] | MIC [3] [µg/mL] | MIC [4] [µg/mL] | MIC [6] [µg/mL] | MIC [7] [µg/mL] | MIC [9] [µg/mL] | MIC [10] [µg/mL] | MIC [11] [µg/mL] | MIC [12] [µg/mL] | MIC [14] [µg/mL] | MIC [15] [µg/mL] | MIC [16] [µg/mL] | MIC [17] [µg/mL] | MIC [18] [µg/mL] | MIC [20] [µg/mL] | MIC [21] [µg/mL] | MIC [22] [µg/mL] | MIC [23] [µg/mL] | MIC [25] [µg/mL] | further results |
| --- | --- | --- | --- | --- | --- | --- | --- | --- | --- | --- | --- | --- | --- | --- | --- | --- | --- | --- | --- | --- | --- |
| CC[C@H]1OC(=O)[C@H](C)[C@@H](O[C@H]2C[C@@](C)(OC)[C@@H](O)[C@H](C)O2)[C@H](C)[C@@H](O[C@@H]2O[C@H](C)C[C@H](N(C)C)[C@H]2O)[C@@H](C)C[C@@H](C)C2=NCCN3C(=O)O[C@@]1(C)[C@H]3[C@H]2C [Example 14] | ≤ 0.005 | 1.56 (≈ 2.03 µM) | 50 (≈ 65.1 µM) | 100 (≈ 130 µM) | 0.1 (≈ 0.13 µM) | > 100 | 50 (≈ 65.1 µM) | 3.1 (≈ 4.04 µM) | > 100 | 100 (≈ 130 µM) | > 100 | > 100 | 0.2 (≈ 0.26 µM) | 0.05 (≈ 0.0651 µM) | 0.78 (≈ 1.02 µM) | 0.78 (≈ 1.02 µM) | 25 (≈ 32.6 µM) | > 100 | 100 (≈ 130 µM) | 50 (≈ 65.1 µM) | MIC [5]: 0.1 µg/mL (≈ 0.13 µM); MIC [8]: 3.1 µg/mL (≈ 4.04 µM); MIC ([13]; S. aureus A5177): 6.2 µg/mL (≈ 8.07 µM); MIC [19]: 0.01 µg/mL (≈ 0.013 µM); MIC [24]: 0.2 µg/mL (≈ 0.26 µM); MIC [26]: > 100 µg/mL; MIC [27]: 0.2 µg/mL (≈ 0.26 µM); MIC [28]: 100 µg/mL (≈ 130 µM); MIC [29]: 0.39 µg/mL (≈ 0.508 µM); MIC [30]: > 100 µg/mL |
| CC[C@H]1OC(=O)[C@H](C)C(=O)[C@H](C)[C@@H](O[C@@H]2O[C@H](C)C[C@H](N(C)C)[C@H]2O)[C@](C)(OC)C[C@@H](C)C2=N[C@@H]3CN(Cc4ccccc4)C[C@@H]3N3C(=O)O[C@@]1(C)[C@H]3[C@H]2C [Example 21] | 0.01 (≈ 0.013 µM) | 0.39 (≈ 0.507 µM) | 50 (≈ 65 µM) | 100 (≈ 130 µM) | 0.78 (≈ 1.01 µM) | > 100 | > 100 | 3.1 (≈ 4.03 µM) | > 100 | > 100 | > 100 | > 100 | 0.78 (≈ 1.01 µM) | 0.2 (≈ 0.26 µM) | 3.1 (≈ 4.03 µM) | 0.78 (≈ 1.01 µM) | > 100 | > 100 | > 100 | 100 (≈ 130 µM) | MIC [31]: 100 µg/mL (≈ 130 µM); MIC [32]: 0.05 µg/mL (≈ 0.065 µM); MIC [5]: 0.78 µg/mL (≈ 1.01 µM); MIC ([13]; S. aureus A5177, unit assumed): 0.78 µg/mL (≈ 1.01 µM); MIC [19]: 0.05 µg/mL (≈ 0.065 µM); MIC [24]: 0.78 µg/mL (≈ 1.01 µM); MIC [26]: > 100 µg/mL; MIC [27]: 6.2 µg/mL (≈ 8.06 µM); MIC [33]: > 100 µg/mL; MIC [28]: > 100 µg/mL; MIC [29]: 1.56 µg/mL (≈ 2.03 µM); MIC [30]: > 100 µg/mL |
| CC[C@H]1OC(=O)[C@H](C)C(=O)[C@H](C)[C@@H](O[C@@H]2O[C@H](C)C[C@H](N(C)C)[C@H]2O)[C@](C)(OC)C[C@@H](C)C2=NC3CN(Cc4ccccc4)CC3N3C(=O)O[C@@]1(C)[C@H]3[C@H]2C (some centres unmarked) [Example 110] | 0.005 (≈ 0.0065 µM) | 0.2 (≈ 0.26 µM) | 12.5 (≈ 16.3 µM) | 50 (≈ 65 µM) | 0.2 (≈ 0.26 µM) | > 100 | 50 (≈ 65 µM) | 1.56 (≈ 2.03 µM) | > 100 | > 100 | > 100 | > 100 | 0.2 (≈ 0.26 µM) | 0.05 (≈ 0.065 µM) | 0.78 (≈ 1.01 µM) | 0.05 (≈ 0.065 µM) | > 100 | > 100 | 50 (≈ 65 µM) | 25 (≈ 32.5 µM) | MIC [31]: 50 µg/mL (≈ 65 µM); MIC [32]: 0.02 µg/mL (≈ 0.026 µM); MIC ([13]; S. aureus A5177, unit assumed): 0.2 µg/mL (≈ 0.26 µM); MIC [19]: 0.02 µg/mL (≈ 0.026 µM); MIC [26]: > 100 µg/mL; MIC [27]: 0.39 µg/mL (≈ 0.507 µM); MIC [33]: 50 µg/mL (≈ 65 µM); MIC [29]: 0.2 µg/mL (≈ 0.26 µM); MIC [30]: > 100 µg/mL |
| CC[C@H]1OC(=O)[C@H](C)C(=O)[C@H](C)[C@@H](O[C@@H]2O[C@H](C)C[C@H](N(C)C)[C@H]2O)[C@](C)(OC)C[C@@H](C)C2=NCC(COC(=O)c3ccnc4ccccc34)N3C(=O)O[C@@]1(C)[C@H]3[C@H]2C (some centres unmarked) [Example 137] | 0.01 (≈ 0.0122 µM) | 0.2 (≈ 0.243 µM) | 12.5 (≈ 15.2 µM) | 100 (≈ 122 µM) | 0.05 (≈ 0.0608 µM) | 100 (≈ 122 µM) | 25 (≈ 30.4 µM) | 0.2 (≈ 0.243 µM) | > 100 | 50 (≈ 60.8 µM) | 50 (≈ 60.8 µM) | > 100 | 0.05 (≈ 0.0608 µM) | 0.01 (≈ 0.0122 µM) | 0.2 (≈ 0.243 µM) | 0.01 (≈ 0.0122 µM) | 100 (≈ 122 µM) | > 100 | 25 (≈ 30.4 µM) | 12.5 (≈ 15.2 µM) | MIC [31]: 6.2 µg/mL (≈ 7.53 µM); MIC [5]: 0.02 µg/mL (≈ 0.0243 µM); MIC [8]: 0.2 µg/mL (≈ 0.243 µM); MIC ([13]; S. aureus A5177, unit assumed): 0.02 µg/mL (≈ 0.0243 µM); MIC [24]: 0.05 µg/mL (≈ 0.0608 µM); MIC [26]: 100 µg/mL (≈ 122 µM); MIC [27]: 0.05 µg/mL (≈ 0.0608 µM); MIC [33]: 50 µg/mL (≈ 60.8 µM); MIC [28]: 100 µg/mL (≈ 122 µM); MIC [29]: 0.02 µg/mL (≈ 0.0243 µM); MIC [30]: 100 µg/mL (≈ 122 µM) |

Source: patent US6274715A, “Tricyclic erythromycin derivatives” (priority 1997, dated 2001)
